Consider seven compounds from patent US6156700A, “3-(1,2-Benzisothiazol- and isoxazol-5-yl)-2,4(1H,3H)-pyrimidinedione or thione and 3-(1,2-benzisothiazol- and isoxazol-5-yl)-4(3H)-pyrimidinone or thione herbicidal agents” (American Cyanmid Company, priority 1998, dated 2000).

Parameters in all cases: scale not given here
Experiment [1] has as its system MOOVA Monochoria. The experiment is described as follows: Postemergence weed control, flooded paddy (Table IV). The format is in vivo, Monochoria vaginalis. From the text:
(§1) Plastic containers containing weeds which are 3 to 5 cm tall and rice seedlings at the 1.5 to 2.5 leaf stage are flooded with water. The water is maintained at 1.5 to 3 cm above the soil surface for the duration of the experiment. Test compounds are applied as aqueous/acetone mixtures 50/50 v/v directly into the flood water to provide the equivalent of about 0.0313 to 0.500 kg/ha of active ingredient. The treated containers are placed on greenhouse benches and cared for in accordance with conventional greenhouse procedures. Three to four weeks after treatment, the test is terminated and each container is examined and herbicidal effect rated according to the rating system provided in Example 185. The compounds evaluated are reported by compound number given in Example 185.

The subject of experiment [2] is CYPSE Flatsedge. Described as above. The format is in vivo, Cyperus serotinus.
Description: as §1

The subject of experiment [3] is ECHORC Watergrass (Calif.). The description is as above. In kind it is in vivo, Echinochloa oryzoides.
Description: as §1

The subject of experiment [4] is SAGPY Arrowhead (Pygmaea). Described as above. The format is in vivo, Sagittaria pygmaea.
Description: as §1

Experiment [5] relates to CYPIR Rice Flatsedge. The description is as above. The format is in vivo, Cyperus iria.
Description: as §1

The test system of experiment [6] is ORYSAT Rice, Tebonnet. The experiment is described as follows: Rice tolerance, flooded paddy (Table IV). In kind it is in vivo, Oryza sativa. The conditions noted are these: crop tolerance.
Description: as §1

With `COCc1nsc2cc(F)c(-n3c(=O)cc(C(F)(F)F)n(C)c3=O)cc12` [Compound 378, 2,4(1H,3H)-Pyrimidinedione, 3-[6-fluoro-3-(methoxymethyl)-1,2-benzisothiazol-5-yl]-1-methyl-6-(trifluoromethyl)-], the herbicidal effect rating in experiment [1] (0.1250 kg/ha), in experiment [2] (0.1250 kg/ha), in experiment [3] (0.1250 kg/ha), in experiment [4] (0.1250 kg/ha), in experiment [5] (0.1250 kg/ha) and in experiment [6] (0.1250 kg/ha) was 9.0 in each case.

On to `COc1cc2c(cc1-c1nsc3ccc(-n4c(=O)cc(C(F)(F)F)n(C)c4=O)cc13)CCC2` [Compound 380, 2,4(1H,3H)-Pyrimidinedione, 3-[3-(6-methoxy-5-indanyl)-1,2-benzisothiazol-5-yl]-1-methyl-6-(trifluoromethyl)-], for which the herbicidal effect rating in experiment [1] (0.1250 kg/ha) is reported as 9.0; in experiment [1] (0.2500 kg/ha) it was 9.0; in experiment [2] (0.1250 kg/ha), 2.0; in experiment [2] (0.2500 kg/ha), 8.0; in experiment [3] (0.1250 kg/ha), 9.0; in experiment [3] (0.2500 kg/ha), 9.0. In addition, the herbicidal effect rating in experiment [4] (0.1250 kg/ha) is reported as 2.0; in experiment [4] (0.2500 kg/ha), 8.0; in experiment [5] (0.1250 kg/ha), 9.0; in experiment [5] (0.2500 kg/ha), 9.0; in experiment [6] (0.1250 kg/ha), 7.0; in experiment [6] (0.2500 kg/ha), 7.0.

Turning to `COc1cc(C)c(I)cc1-c1nsc2ccc(-n3c(=O)cc(C(F)(F)F)n(C)c3=O)cc12` [Compound 429, 2,4(1H,3H)-Pyrimidinedione,3-[3-(5-iodo-2-methoxy-p-tolyl)-1,2-benzisothiazol-5-yl]-1-methyl-6-(trifluoromethyl)-], the herbicidal effect rating in experiment [1] (0.1250 kg/ha) amounted to 7.0; in experiment [1] (0.2500 kg/ha), 7.0; in experiment [2] (0.1250 kg/ha) it was 0.0; in experiment [2] (0.2500 kg/ha), 0.0; in experiment [3] (0.1250 kg/ha), 6.0; in experiment [3] (0.2500 kg/ha) it was 9.0. The herbicidal effect rating in experiment [4] (0.1250 kg/ha) is given as 0.0; in experiment [4] (0.2500 kg/ha), 0.0; in experiment [5] (0.1250 kg/ha) it was 7.0; in experiment [5] (0.2500 kg/ha), 9.0; in experiment [6] (0.1250 kg/ha), 2.0; in experiment [6] (0.2500 kg/ha) it was 2.0.

Consider `CCCCC(=O)c1nsc2ccc(-n3c(=O)cc(C(F)(F)F)n(C)c3=O)cc12` [Compound 431, 2,4(1H,3H)-Pyrimidinedione, 1-methyl-6-(trifluoromethyl)-3-(3-valeryl-1,2-benzisothiazol-5-yl)-], for which the herbicidal effect rating in experiment [1] (0.1250 kg/ha) is on record as 9.0; in experiment [1] (0.2500 kg/ha), 9.0; in experiment [2] (0.1250 kg/ha) it was 0.0; in experiment [2] (0.2500 kg/ha), 4.0; in experiment [3] (0.1250 kg/ha), 9.0; in experiment [3] (0.2500 kg/ha), 9.0. Also, the herbicidal effect rating in experiment [4] (0.1250 kg/ha) was 0.0; in experiment [4] (0.2500 kg/ha), 4.0; in experiment [5] (0.1250 kg/ha), 9.0; in experiment [5] (0.2500 kg/ha) it was 9.0; in experiment [6] (0.1250 kg/ha) it was 3.0; in experiment [6] (0.2500 kg/ha), 7.0.

As for `Cn1c(C(F)(F)F)cc(=O)n(-c2ccc3snc(C(=O)C(C)(C)C)c3c2)c1=O` [Compound 432, 2,4(1H,3H)-Pyrimidinedione, 1-methyl-3-(3-pivaloyl-1,2-benzisothiazol-5-yl)-6-(trifluoromethyl)-], the herbicidal effect rating in experiment [1] (0.1250 kg/ha) is listed as 9.0; in experiment [1] (0.2500 kg/ha) it was 9.0; in experiment [2] (0.1250 kg/ha) it was 7.0; in experiment [2] (0.2500 kg/ha), 9.0; in experiment [3] (0.1250 kg/ha) it was 9.0; in experiment [3] (0.2500 kg/ha) it was 9.0. In addition, the herbicidal effect rating in experiment [4] (0.1250 kg/ha) amounted to 2.0; in experiment [4] (0.2500 kg/ha), 4.0; in experiment [5] (0.1250 kg/ha), 9.0; in experiment [5] (0.2500 kg/ha), 9.0; in experiment [6] (0.1250 kg/ha), 7.0; in experiment [6] (0.2500 kg/ha) it was 7.0.

As to `CCC(C#N)(CC)c1nsc2ccc(-n3c(=O)cc(C(F)(F)F)n(C)c3=O)cc12` [Compound 445, 1,2-Benzisothiazole-3-acetonitrile, 5-[3,6-dihydro-3-methyl-2,6-dioxo-4-(trifluoromethyl)-1(2H)-pyrimidinyl]-alpha,alpha-diethyl-], the herbicidal effect rating in experiment [1] (0.1250 kg/ha) worked out at 2.0; in experiment [1] (0.2500 kg/ha) it was 9.0; in experiment [2] (0.1250 kg/ha), 4.0; in experiment [2] (0.2500 kg/ha), 4.0; in experiment [3] (0.1250 kg/ha) it was 9.0; in experiment [3] (0.2500 kg/ha), 9.0. Besides, the herbicidal effect rating was found to be 4.0 in experiment [4] (0.1250 kg/ha); 9.0 in experiment [4] (0.2500 kg/ha); 9.0 in experiment [5] (0.1250 kg/ha); 9.0 in experiment [5] (0.2500 kg/ha); 7.0 in experiment [6] (0.1250 kg/ha); 7.0 in experiment [6] (0.2500 kg/ha).

Take `COc1ccc(I)cc1-c1nsc2ccc(-n3c(=O)cc(C(F)(F)F)n(C)c3=O)cc12` [Compound 448, 2,4(1H,3H)-Pyrimidinedione, 3-[3-(5-iodo-2-methoxyphenyl)-1,2-benzisothiazol-5-yl]-1-methyl-6-(trifluoromethyl)-]: the herbicidal effect rating was determined as 1.0 in experiment [1] (0.1250 kg/ha); 4.0 in experiment [1] (0.2500 kg/ha); 0.0 in experiment [2] (0.1250 kg/ha); 0.0 in experiment [2] (0.2500 kg/ha); 1.0 in experiment [3] (0.1250 kg/ha); 2.0 in experiment [3] (0.2500 kg/ha). Besides, the herbicidal effect rating was determined as 0.0 in experiment [4] (0.1250 kg/ha); 0.0 in experiment [4] (0.2500 kg/ha); 7.0 in experiment [5] (0.1250 kg/ha); 9.0 in experiment [5] (0.2500 kg/ha); 1.0 in experiment [6] (0.1250 kg/ha); 2.0 in experiment [6] (0.2500 kg/ha).
